Measured values: patent US20260107927A1, “ZEBRAFISH ANIMAL MODEL FOR INFLAMMATORY DISEASES AND METHOD FOR SCREEING ANTI-INFLAMMATORY AGENTS USING SAME” (RAYDEL KOREA CO., LTD., priority 2022, published 2026)

Experiments:
[1] = test system: zebrafish adults; assay: Intraperitoneal CML plus test substances in zebrafish adults: recovery of swimming ability and survival; assay type: in vivo, zebrafish (Danio rerio); conditions: for swimming ability compared with CML injected group / recovery of ability to swim compared with CML injected group: co-injected with CML; for swimming ability compared with CML injected group: 30 minutes after injection; for survival rate of zebrafish adults: combined treatment with CML, FIG. 11
Excerpt: The cytokine storm suppression ability of the test substances was compared by confirming the swimming ability of zebrafish of the groups injected with PBS, CML, CML and Remsima (Infliximab), and CML and Actemra (Tocilizumab) via intraperitoneal administration (FIG. 9).
The effects of the test substances in the CML and Remsima (Infliximab) injected group and the CML and Actemra (Tocilizumab) injected group were compared.

[2] = test system: zebrafish adults; assay: Intraperitoneal CML injection into zebrafish adults: swimming ability, acute paralysis, survival
Experimental: Movements of 10 zebrafish adults (16±3 weeks old) injected intraperitoneally with CML (250 μg, 10 μL) solution (final conc. of CML: 3 mM) and 10 zebrafish adults injected with PBS were observed 30 minutes and 1 hour after injection.

[3] = test system: zebrafish embryos; assay: CML microinjection into zebrafish embryos: survival rate and embryo development; assay type: in vivo, zebrafish (Danio rerio)
Experimental: The present inventors constructed a zebrafish embryonic animal model microinjected with CML to establish an acute cytokine storm induction system. After confirming under a microscope that the freshly spawned zebrafish embryos were 30 minutes post-fertilization (0.5 hour post fertilization (0.5 hpf)), the fertilized embryos that were dividing normally were selected. […] The tip of the needle was sharpened by cutting it diagonally using a sharp forcep, a hole was made, and 5 μL of injection cocktail solution was added to the microglass needle.
(§1) Eggs were densely packed and arranged at appropriate intervals on a 1% agarose gel with grooves of appropriate spacing to facilitate rapid microinjection. A microglass needle was attached to a microinjector (PV-830, World Precision Instruments, Sarasota, FL, USA), 5 μL of mineral oil was spread on a graduated hematocytometer, the needle was placed on top of it, and the contents were injected. The size of the bubble formed was measured and calibrated to the desired volume, after which it was injected into zebrafish embryos at the 2-cell and 4-cell stages.
(§2) At this time, in order to minimize errors in the microinjection process, microinjection was performed as much as possible into the yolk area. After microinjection, the embryos were separated from the agarose gel and placed in a Petri dish, which was then filled with 20 mL of egg water (0.02 mg/L methylene blue) and stored at 28° C.
To compare the survival rates of zebrafish embryos, the inventors prepared a non-injected group (No injection), a PBS-injected control group (PBS control), and a CML-injected group.

[4] = test system: interleukin-6 (IL-6); assay: Plasma interleukin-6 after CML with or without test substances; assay type: in vivo, zebrafish (Danio rerio); conditions: FIG. 17
Experimental: (§3) Blood was collected from zebrafish in each group, plasma was isolated, and total cholesterol (TC) and triglyceride (TG) were analyzed. Blood was collected from zebrafish in each group, plasma was isolated, and serum amyloid A (SAA), a biomarker of hepatitis induction, interleukin-6 (IL-6), a factor that induces an acute cytokine storm in the liver, and tumor necrosis factor-α (TNF-α), an inflammatory cytokine involved in liver inflammation were analyzed.

[5] = test system: tumor necrosis factor-α (TNF-α); assay: Plasma tumor necrosis factor-α after CML with or without test substances; assay type: in vivo, zebrafish (Danio rerio); conditions: FIG. 18
Experimental: as §3

[6] = test system: liver tissue of zebrafish adults; assay: Hematoxylin-eosin (H&E) staining of liver tissue: inflammatory cell infiltration; assay type: in vivo, zebrafish (Danio rerio)
Experimental: To compare the degree of acute cytokine storm induction by CML and alleviation, hematoxylin-eosin (H&E) staining was performed on zebrafish adults of the PBS-injected and CML-injected groups, and the degree of inflammatory cell infiltration in the liver tissue was investigated.
That is, the inhibitory effect of the IL-6 inhibitor Actemra (Tocilizumab) on inflammation caused by CML-induced glycation toxicity was greater than that of the TNF-α inhibitor Remsima (Infliximab).

[7] = test system: serum amyloid A (SAA); assay: Plasma serum amyloid A after CML with or without test substances; assay type: in vivo, zebrafish (Danio rerio); conditions: FIG. 16
Experimental: as §3

[8] = test system: zebrafish adults; assay: Plasma total cholesterol (TC) and triglyceride (TG) after CML with or without test substances; assay type: in vivo, zebrafish (Danio rerio); conditions: for plasma triglyceride (TG) concentration: FIG. 15
Experimental: Zebrafish adults were treated with CML at a concentration of 3 mM, and Actemra (Tocilizumab) and Remsima (Infliximab) were simultaneously treated to confirm the effects of the test substances on reducing total cholesterol (TC) and triglyceride (TG).
Blood was collected from zebrafish in each group, plasma was isolated, and total cholesterol (TC) and triglyceride (TG) were analyzed.

[9] = test system: zebrafish embryos; assay: Combined microinjection of CML with test substances into zebrafish embryos: survival rate and development; assay type: in vivo, zebrafish (Danio rerio); conditions: for survival rate of embryos: co-injected with 500 ng CML, 43 ng Remsima or 44 ng Actemra, after 24 hours, FIG. 3; for rate of development: co-injected with CML, 25 hours post-injection; for rate of development / developmental defects: FIG. 4; for developmental defects: microinjected mixture with CML
Experimental: The present inventors constructed a zebrafish embryonic animal model microinjected with CML to establish an acute cytokine storm induction system. After confirming under a microscope that the freshly spawned zebrafish embryos were 30 minutes post-fertilization (0.5 hour post fertilization (0.5 hpf)), the fertilized embryos that were dividing normally were selected. A capillary glass tube (TW100F-4, World Precision Instruments, Sarasota, FL, USA) was inserted into a micro-glass needle maker (PC-10, Narishege, Tokyo, Japan), and the coil was adjusted to be in the center of the capillary glass tube, and then a needle was made at a temperature of 71.3° C. The tip of the needle was sharpened by cutting it diagonally using a sharp forcep, a hole was made, and 5 μL of injection cocktail solution was added to the microglass needle.
as §1
as §2, with “C. All injection processes were performed under a stereomicroscope (SMZ-168, Motic, Hong Kong) at 20× magnification.” for “C.”

[10] = CML-injected embryos, about 25 hours post-fertilization
[11] = intraperitoneal, 1 hour after injection, FIG. 9
[12] = treated simultaneously with CML
[13] = treated simultaneously with CML, FIGS. 12 and 13

Compound	swimming ability compared with CML injected group ([1]; intraperitoneal, FIG. 9)	recovery of ability to swim compared with CML injected group [1, 11]	survival rate of zebrafish adults [1]	IL-6 [4, 12]	TNF-α [5, 12]	inflammatory cell infiltration in liver tissue [6, 13]	serum amyloid A (SAA) [7, 12]	survival rate of embryos [9]	rate of development [9]	developmental defects [9]	further results
N[C@@H](CCCCNCC(=O)O)C(=O)O [CML, N-ε-carboxymethyllysine]											number of zebrafish showing recovery of swimming ability ([1]; CML group, 3 mM intraperitoneal, 1 hour after injection, FIG. 9): 2 to 3; zebrafish that recovered the ability to swim ([2]; CML 250 μg intraperitoneal (final 3 mM), 1 hour after injection, FIGS. 5 and 6): 25%; movement / swimming ability ([2]; CML 250 μg, 10 μL intraperitoneal (final 3 mM), first 30 minutes after injection): immobilized and lying on the bottom; survival rate of zebrafish adults ([2]; CML alone, intraperitoneal, after 60 minutes, FIG. 8): less than 49%; survival rate of zebrafish embryos ([3]; 500 ng CML microinjected (20 nL, 25 mg/mL in PBS), 24 hours, FIG. 1): 23.5%; developmental stage of embryos ([3]; 25 hours after CML injection, FIG. 2): 21-somite stage; developmental morphology ([3]; CML-injected embryos): developmental malformations were present in the head and tail; developmental state, equivalent time after fertilization [3, 10]: about 19.5 hours after fertilization; number of somites [3, 10]: about 21; IL-6 ([4]; CML alone): 76.4 ± 6.1 pg/mL; TNF-α ([5]; CML alone): 43.5 ± 0.4 ng/mL; inflammatory cell infiltration in liver tissue ([6]; CML alone, FIGS. 12 and 13): approximately 23%; inflammatory cell infiltration in liver tissue ([6]; CML only injection group, FIG. 8): 27%; serum amyloid A (SAA) ([7]; CML alone): 59.7 ± 1.6 ng/mL; plasma total cholesterol (TC) concentration ([8]; CML alone, 3 mM, FIG. 14): highest; plasma triglyceride (TG) concentration ([8]; CML alone, 3 mM): highest
Remsima: biopharmaceutical, a TNF-α inhibitor, used as treatment agent for rheumatoid arthritis	More zebrafish	more zebrafish had regained the ability to swim	63%	62.8 ± 3.1 pg/mL	41.6 ± 5.8 ng/mL	approximately 23%	41.2 ± 5.3 ng/mL	38.4%	almost the same rate of development as embryos injected with PBS	no developmental defects were observed	
Actemra: biopharmaceutical, an IL-6 inhibitor, used as treatment agent for rheumatoid arthritis	More zebrafish	more zebrafish had regained the ability to swim	approximately 97%	51.8 ± 1.8 pg/mL	6.8 ± 2.6 ng/mL	15-17%	38.8 ± 2.0 ng/mL	53.1%	almost the same rate of development as embryos injected with PBS	no developmental defects were observed	recovery of swimming ability and survival rate compared with 43 μg Remsima ([1]; 44 μg Actemra with CML, intraperitoneal, FIGS. 10 and 11): recovery of swimming ability was better and survival rate was increased; plasma triglyceride (TG) concentration ([8]; treated simultaneously with 3 mM CML): lowest
